Laboratory results reported in patent US7078537B2, “Phenylalkyl diamine and amide analogs” (SK Corporation, priority 2001, dated 2006).
Where two headings read alike, the source gives them in different places.

Key:
[1] = biological target: T1, sigma-1 receptor (Cavia porcellus, UniProt Q60492); test: Sigma-1 binding assay ([3H](+)-pentazocine); settings: guinea pig brain membranes; for inhibition at 0.01 µM: inhibition % at 10 nM, [3H](+)-pentazocine, Table II, read-out: Sigma 1 Inhib. %; for IC50: [3H](+)-pentazocine 2.4 nM, Table I
T1 construct: their whole brains (without cerebellum) were rapidly removed and homogenized; from tissue; host or cells: guinea pig (male Hartley) whole brain without cerebellum, membrane homogenate
Experimental: (§1) Sigma-1 and Sigma-2 Binding Assay Methods
(§2) Compounds of the present inventions were tested for selective binding to the sigma-1 receptor and sigma-2 receptor as modified from Chaki et al. Eur. J. Pharmacol. 1994, 251, R1. and Akunne et al., Neuropharmacology, 1997, 36(1), 51.
(§3) Tissue Homogenate Preparation for Sigma-1 Binding Assay and Sigma-2 Binding Assay
(§4) Male Hartley guinea pigs each weighing 300–400 g were used in sigma subtype binding assay. Guinea pigs were killed by decapitation and their whole brains (without cerebellum) were rapidly removed and homogenized in 25 volumes(W/V) of ice-cold 50 mM Tris-HCl buffer(pH 7.4 buffer for sigma-1 binding assay and pH 8.0 buffer for sigma-2 binding assay). The homogenate was centrifuged in 48,000×g for 10 min at 4° C. The supernatant was discarded and the resulting pellets were resuspended in the sane volume of buffer and recentrifuged as described above. The pellets were resuspended and washed twice more in the same manner as described above. The final pellets were resuspended in 10 volumes(W/V) of ice-cold 50 mM Tris-HCl buffer to enable distribution of 2 ml aliquot in microcentrifuge tube, which were used immediately or kept at −80° C. for no more than 1 month before use.
Sigma-1 Binding Assay ([^3H](+)pentazocine)
The sigma-1 selective binding assay was performed using [^3H](+)-pentazocine as the radioligand (2.4 nM final concentration unless otherwise specified) and approximately […] of guinea pig brain membranes in a final volume of […] of 50 mM TRISHCl, pH7.4. Non-specific binding was determined in the presence of […]. For the standard equilibrium assay, the mixtures were incubated for 2 hours at 25°, and rapidly filtered over Whatman GF/C glass fiber filters, followed by three 4.5 ml rinses with ice-cold incubation buffer. The filters were placed in counting vials and 4 ml scintillation solution. The vials were counted in a Beckman scintillation counter.
(§5) IC50 values for sigma-1 or -2 binding assay were calculated using KELL RADLIG v.6.0.5.

[2] = biological target: T2, sigma-2 receptor (Cavia porcellus, UniProt H0V073); test: Sigma-2 binding assay ([3H]DTG in the presence of (+)-SKF10047); settings: guinea pig brain membranes, read-out: Sigma 2 Inhib. %
T2 construct: their whole brains (without cerebellum) were rapidly removed and homogenized; from tissue; host or cells: guinea pig (male Hartley) whole brain without cerebellum, membrane homogenate
T2 sequence (H0V073 1-176): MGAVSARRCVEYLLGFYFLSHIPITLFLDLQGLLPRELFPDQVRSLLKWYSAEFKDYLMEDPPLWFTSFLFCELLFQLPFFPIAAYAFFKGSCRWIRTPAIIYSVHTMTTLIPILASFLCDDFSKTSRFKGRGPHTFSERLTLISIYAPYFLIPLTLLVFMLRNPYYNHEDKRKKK
Experimental: as §1, §2, §3, §4
Sigma-2 Binding Assay([^3H]DTG)
The Sigma-2 selective binding assay was performed using 3.6 nM[^3H]DTG as the radioligand in the presence of 200 nM (+)-SKF10047 to block the Sigma-1 sites, with […] of guinea pig brain membranes in a total volume of 0.5 ml of 50 mM TRIS-HCl, pH8.0. Non-specific binding was determined in the presence of […]. Incubation condition and other manipulations were as described above for sigma-1 binding assay.
as §5

[3] = inhibition % at 10 nM, [3H]DTG, Table II
[4] = Inhibition % at 10 nM, [3H]DTG 3.6 nM, Table I

T1 sequence (Q60492 whole entry): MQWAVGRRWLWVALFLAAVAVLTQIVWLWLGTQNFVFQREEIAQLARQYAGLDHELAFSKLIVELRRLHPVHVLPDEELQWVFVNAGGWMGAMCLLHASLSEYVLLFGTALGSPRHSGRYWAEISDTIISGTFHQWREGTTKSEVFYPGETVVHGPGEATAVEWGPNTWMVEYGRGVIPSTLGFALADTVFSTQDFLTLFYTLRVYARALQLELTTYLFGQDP

| SMILES | inhibition at 0.01 µM [1] | inhibition at 0.01 µM [2, 3] | IC50 [1] | inhibition at 0.01 µM [2, 4] |
| --- | --- | --- | --- | --- |
| N[C@@H](Cc1ccccc1)CN1CCC(C(=O)Cc2ccccc2)CC1 | 43.1% | 21.4% |  |  |
| NC(Cc1ccc(Cl)cc1)CN1CCC(C(=O)c2cccc(Cl)c2)CC1 (stereo not shown) | 34.5% | 41.6% |  |  |
| O=CNC(Cc1ccc(Cl)c(Cl)c1)CN1CCCCCC1 (stereo not shown) | 67.7% | 37.8% |  |  |
| CC(C)(C)c1ccc(CC(N)CN2CCCCCC2)cc1 (stereo not shown) |  |  | 2.1 nM | 55.7% |
| NC(CCCCN1CCCCCC1)c1ccccc1 (stereo not shown) | 9.3% | 32.5% |  |  |
| CN(C)C(Cc1ccc(C(C)(C)C)cc1)CN1CCCCCC1 (stereo not shown) |  |  | 2.1 nM |  |
| O=C(NC(CCN1CCC(Cc2ccccc2)CC1)c1ccccc1)c1ccccc1 (stereo not shown) | 44.3% | 5.2% |  |  |
| O=[N+]([O-])c1ccc(S(=O)(=O)NC(CCN2CCC(Cc3ccccc3)CC2)c2ccccc2)c([N+](=O)[O-])c1 (stereo not shown) | 5.7% | 40.6% |  |  |
| O=[N+]([O-])c1ccccc1S(=O)(=O)NC(CCN1CCC(Cc2ccccc2)CC1)c1ccccc1 (stereo not shown) | 31.6% | 3.1% |  |  |
| CN(C(=O)Cc1ccc(Cl)c(Cl)c1)C(Cc1ccc(C(C)(C)C)cc1)CN1CCCCCC1 (stereo not shown) |  |  | 35.7 nM | 51.4% |
| NC(Cc1ccc(C(F)(F)F)cc1)CN1CCCCCC1 (stereo not shown) |  |  | 2 nM | 43.9% |
| CN(C=O)C(CCN1CCC(Cc2ccccc2)CC1)c1ccccc1 (stereo not shown) | -2% | 26.4% |  |  |
| CNC(Cc1ccc(C(C)(C)C)cc1)CN1CCCCCC1 (stereo not shown) |  |  | 2.5 nM | 27.4% |
| Clc1ccc(CCNC(CCN2CCCCCC2)c2ccccc2)cc1Cl (stereo not shown) |  |  | 10.2 nM | 70.2% |
| CC(C)(C)c1ccc(CC(CN2CCC(Cc3ccccc3)CC2)NC=O)cc1 (stereo not shown) | 52.7% | 6.1% |  |  |
| CC(C)(C)c1ccc(CC(CN2CCCCCC2)NCc2ccccc2)cc1 (stereo not shown) |  |  | 10 nM |  |
| NC(Cc1ccc(Cl)cc1)CN1CCC(C(=O)c2ccc(Cl)c(Cl)c2)CC1 (stereo not shown) | 24.7% | 51.7% |  |  |
| NC(CCN1CCC(C(=O)c2ccc(F)cc2)CC1)c1ccccc1 (stereo not shown) | -1.9% | 57.3% |  |  |
| N[C@H](Cc1ccccc1)CN1CCC(C(=O)c2ccccc2)CC1 | 11.2% | 16.9% |  |  |
| O=CNC(Cc1ccc(Cl)cc1Cl)CN1CCC(Cc2ccccc2)CC1 (stereo not shown) | 74.5% | 24.3% |  |  |
| Clc1ccc(CCNC(CCN2CCC(Cc3ccccc3)CC2)c2ccccc2)cc1Cl (stereo not shown) | 28.8% | 22.6% |  |  |
| NC(Cc1ccc(Cl)c(Cl)c1)CN1CCCCCC1 (stereo not shown) |  |  | 12.1 nM | 12.5% |
| NC(Cc1ccc(Cl)cc1)CN1CCCCCC1 (stereo not shown) |  |  | 13.9 nM | 36.8% |
| CC(C)(C)c1ccc(CC(N)CCN2CCC(Cc3ccccc3)CC2)cc1 (stereo not shown) | 3.7% | 24.3% |  |  |
| NC(CCN1CCC(C(=O)c2ccc(Cl)cc2)CC1)c1ccccc1 (stereo not shown) | 7.9% | 43.7% |  |  |
| NC(CCN1CCC(C(=O)Cc2ccccc2)CC1)c1ccccc1 (stereo not shown) | 2.2% | 28.7% |  |  |
| O=C(Cc1ccc(Cl)c(Cl)c1)NC(CCN1CCCCCC1)c1ccccc1 (stereo not shown) |  |  | 10.8 nM | 27.1% |

Continued, in another order:

| inhibition at 0.01 µM [1] | inhibition at 0.01 µM [2, 3] | SMILES | IC50 [1] | inhibition at 0.01 µM [2, 4] |
| --- | --- | --- | --- | --- |
| 63.2% | 57.9% | CNC(Cc1ccc(C(C)(C)C)cc1)CN1CCC(Cc2ccccc2)CC1 (stereo not shown) |  |  |
| 45.7% | 25.7% | O=[N+]([O-])c1cccc(S(=O)(=O)NC(CCN2CCC(Cc3ccccc3)CC2)c2ccccc2)c1 (stereo not shown) |  |  |
| 15.3% | 34.7% | NC(Cc1ccc(Cl)cc1Cl)CN1CCC(C(=O)c2ccccc2)CC1 (stereo not shown) |  |  |
| 61% | 53.6% | N[C@@H](Cc1ccccc1)CN1CCC(C(=O)c2ccc(Cl)cc2)CC1 |  |  |
| 66.2% | 43.1% | CC(C)(C)c1ccc(C(=O)C2CCN(C[C@@H](N)Cc3ccccc3)CC2)cc1 |  |  |
| 26.1% | 38.2% | CC(C)(C)c1ccc(CC(N)CN2CCC(Cc3ccccc3)CC2)cc1 (stereo not shown) |  |  |
| 23.5% | 34.9% | NC(Cc1ccc(Cl)cc1)CN1CCC(C(=O)c2ccc(Cl)cc2)CC1 (stereo not shown) |  |  |
| 28.2% | 26.3% | O=CNC(CCN1CCC(Cc2ccccc2)CC1)c1ccccc1 (stereo not shown) |  |  |
| 25.2% | 50.5% | CNC(CCN1CCC(C(=O)c2ccc(F)cc2)CC1)c1ccccc1 (stereo not shown) |  |  |
| 33.6% | 21.7% | NC(Cc1c(Cl)cccc1Cl)CN1CCCCCC1 (stereo not shown) |  |  |
| 20.3% | 57.7% | CN(C)C(CCN1CCC(Cc2ccccc2)CC1)c1ccccc1 (stereo not shown) |  |  |
| 57.3% | 48.3% | NC(Cc1ccc(Cl)c(Cl)c1)CN1CCC(Cc2ccccc2)CC1 (stereo not shown) |  |  |
| 33.6% | 34% | NC(Cc1ccccc1)CN1CCC(C(=O)c2ccccc2)CC1 (stereo not shown) |  |  |
| 10.8% | 39.6% | NC(Cc1ccc(Cl)c(Cl)c1)CN1CCC(C(=O)c2ccccc2)CC1 (stereo not shown) |  |  |
| 42.9% | 31.3% | NC(Cc1cccc(C(F)(F)F)c1)CN1CCCCCC1 (stereo not shown) |  |  |
| 19.5% | 31% | COc1ccc(C(=O)C2CCN(CC(N)Cc3ccc(Cl)cc3)CC2)cc1 (stereo not shown) |  |  |
| 75.6% | 75% | CNC(Cc1ccc(Cl)cc1Cl)CN1CCC(Cc2ccccc2)CC1 (stereo not shown) |  |  |
| 66.1% | 72.7% | CNC(Cc1ccc(Cl)c(Cl)c1)CN1CCC(Cc2ccccc2)CC1 (stereo not shown) |  |  |

| inhibition at 0.01 µM [1] | inhibition at 0.01 µM [2, 3] | SMILES | IC50 [1] | inhibition at 0.01 µM [2, 4] |
| --- | --- | --- | --- | --- |
| 31.1% | 48.5% | NC(Cc1ccc(Cl)cc1)CN1CCC(C(=O)c2ccc(F)cc2)CC1 (stereo not shown) |  |  |
| 38.9% | 50% | NC(Cc1ccc(Cl)cc1)CN1CCC(C(=O)c2ccccc2)CC1 (stereo not shown) |  |  |
| 13.7% | 48.3% | NC(CCN1CCC(C(=O)c2ccccc2)CC1)c1ccccc1 (stereo not shown) |  |  |
| 35.6% | 11.4% | O=S(=O)(NC(CCN1CCC(Cc2ccccc2)CC1)c1ccccc1)c1ccccc1 (stereo not shown) |  |  |
| 56.9% | 48.3% | NC(Cc1ccc(Cl)cc1Cl)CN1CCC(Cc2ccccc2)CC1 (stereo not shown) |  |  |
| 71.9% | 39.9% | O=CNC(Cc1ccc(Cl)c(Cl)c1)CN1CCC(Cc2ccccc2)CC1 (stereo not shown) |  |  |
| 7.1% | 21.6% | NC(CCCN1CCCCCC1)c1ccccc1 (stereo not shown) |  |  |
| 66.7% | 61.1% | N[C@@H](Cc1ccccc1)CN1CCC(C(=O)c2ccc(F)cc2)CC1 |  |  |
| 73.2% | 61% | NC(Cc1ccc(Cl)cc1Cl)CN1CCCCCC1 (stereo not shown) |  |  |
| 36.3% | 54.1% | CNC(CCN1CCC(Cc2ccccc2)CC1)c1ccccc1 (stereo not shown) |  |  |
| 82.9% | 73% | N[C@@H](Cc1ccccc1)CN1CCC(C(=O)c2cccc(Cl)c2)CC1 |  |  |
| 47.4% | 30% | CC(C)(C)c1ccc(CC(N)CN2CCC(C(=O)c3ccccc3)CC2)cc1 (stereo not shown) |  |  |
| 10.7% | 47.2% | NC(Cc1ccc(Cl)c(Cl)c1)CN1CCC(C(=O)c2ccc(Cl)c(Cl)c2)CC1 (stereo not shown) |  |  |
| 49.1% | 39.8% | COc1ccc(C(=O)C2CCN(C[C@@H](N)Cc3ccccc3)CC2)cc1 |  |  |
| 25.5% | 39.7% | NC(CCN1CCC(Cc2ccccc2)CC1)c1ccccc1 (stereo not shown) |  |  |
| 60.8% | 56.6% | N[C@@H](Cc1ccccc1)CN1CCC(C(=O)c2ccc(Cl)c(Cl)c2)CC1 |  |  |
| 3.2% | 30.9% | COc1ccc(C(=O)C2CCN(CCC(N)c3ccccc3)CC2)cc1 (stereo not shown) |  |  |
| 39.8% | 33.3% | N[C@@H](Cc1ccccc1)CN1CCC(C(=O)c2ccccc2)CC1 |  |  |
